Experimental data: patent publication US20150065499A1, “3-AMINOTHIENO[3,2-c]QUINOLINE DERIVATIVES, METHODS OF PREPARATION AND USES” (TEMPLE UNIVERSITY - OF THE COMMONWEALTH SYSTEM OF HIGHER …, priority 2012, published 2015)

What was measured:
[1] = test system: K562 (chronic myelogenous leukemia; leukemia cell line +ve for Bcr-Abl); assay: Cancer cell assay, K562 tumor cells, viable cells after 96 hours; format: cell-based; conditions: Homo sapiens, 96 hours after treatment, called IC50
Method: (§1) The effect of the compounds of the invention on tumor cells was determined by the assay described by Latham et al., Oncogene 12:827-837 (1996). Tumor cells K562 (chronic myelogenous leukemia; leukemia cell line +ve for Bcr-Abl) or DU145 (prostate cancer) were plated in 12-well dishes at a cell density of 2.5×10^4 cells well. The plated cells were treated 24 hours later with a compound of the invention dissolved in DMSO at multiple concentrations ranging from 0.01 μM to 100 μM. The plates were examined 96 hours later under an inverted microscope, Olympus CK-2 using a 10× objective, and compound activity was noted by physical observation. When necessary, the total number of viable cells was determined by trypsinizing the wells and counting the number of viable cells, as determined by trypan blue exclusion, using a hemacytometer.

DU145 (prostate cancer) = assay: Cancer cell assay, DU145 tumor cells, viable cells after 96 hours; format: cell-based; conditions: Homo sapiens, DU-145, 96 hours after treatment, called IC50
Method: as §1

SMILES	IC50 [1] [µM]	melting point [°C]	IC50 (DU145 (prostate cancer)) [µM]
COC(=O)c1sc2c(cnc3cc(OCCCN4CCOCC4)c(OC)cc32)c1N [Example 11, Methyl 3-amino-8-methoxy-7-(3-morpholinopropoxy)thieno[3,2-c]quinoline-2-carboxylate]	1 to 10	117 to 120	1 to 10
COC(=O)c1sc2c(cnc3cc(OCCCN4CCCCC4)c(OC)cc32)c1N [Example 12, Methyl 3-amino-8-methoxy-7-[3-(piperidin-1-yl)propoxy]thieno[3,2-c]quinoline-2-carboxylate]	1 to 5	127 to 130	1 to 5
COC(=O)c1sc2c(cnc3cc(OC(=O)N4CCN(C)CC4)c(OC)cc32)c1N [Example 13, Methyl 3-amino-8-methoxy-7-[(4-methylpiperazine-1-carbonyl)oxy]thieno[3,2-c]quinoline-2-carboxylate]	10 to 25	147 to 150	10 to 25
COC(=O)c1sc2c(cnc3cc(OCCN4CCOCC4)c(OC)cc32)c1N [Example 14, Methyl 3-amino-8-methoxy-7-(2-morpholinoethoxy)thieno[3,2-c]quinoline-2-carboxylate]	10 to 25	158 to 160	10 to 25
COC(=O)c1sc2c(cnc3cc(OC)c(OCCCN4CCOCC4)cc32)c1N [Example 15, Methyl 3-amino-7-methoxy-8-(3-morpholinopropoxy)thieno[3,2-c]quinoline-2-carboxylate]	10 to 25	188 to 190	10 to 25
COC(=O)c1sc2c(cnc3cc(OC)c(OC)cc32)c1NC(=O)c1ccc(OC)cc1 [Example 16, Methyl 7,8-dimethoxy-3-(4-methoxybenzamido)thieno[3,2-c]quinoline-2-carboxylate]	< 1	255 to 258	< 1
COC(=O)c1sc2c(cnc3cc(OC)c(OC)cc32)c1NC(=O)c1ccccc1F [Example 17, Methyl 3-(2-fluorobenzamido)-7,8-dimethoxythieno[3,2-c]quinoline-2-carboxylate]	0.1 to 0.25	237 to 240	0.5 to 1
COC(=O)c1sc2c(cnc3cc(OC)c(OC)cc32)c1NC(=O)c1ccccc1 [Example 19, Methyl 3-benzamido-7,8-dimethoxythieno[3,2-c]quinoline-2-carboxylate]	0.1 to 0.25	205 to 208	0.25 to 0.5
COC(=O)c1sc2c(cnc3cc(OC)c(OC)cc32)c1NC(=O)c1ccccc1[N+](=O)[O-] [Example 20, Methyl 7,8-dimethoxy-3-(2-nitrobenzamido)thieno[3,2-c]quinoline-2-carboxylate]	3	178 to 181	25
COC(=O)c1sc2c(cnc3cc(OC)c(OC)cc32)c1NC(=O)c1ccc(Cl)c([N+](=O)[O-])c1 [Example 22, Methyl 3-(4-chloro-3-nitrobenzamido)-7,8-dimethoxythieno[3,2-c]quinoline-2-carboxylate]	0.1 to 0.5	260 to 262	0.5 to 1
COC(=O)c1sc2c(cnc3cc(OC)c(OC)cc32)c1NC(=O)C(F)(F)F [Example 23, Methyl 7,8-dimethoxy-3-(2,2,2-trifluoroacetamido)thieno[3,2-c]quinoline-2-carboxylate]	0.2	224 to 230	0.75
COC(=O)c1sc2c(cnc3cc(OC)c(OC)cc32)c1NC(=O)C(=O)N1CCOCC1 [Example 26, Methyl 7,8-dimethoxy-3-(2-morpholino-2-oxoacetamido)thieno[3,2-c]quinoline-2-carboxylate]	50 to 100	232 to 234	25 to 50
COC(=O)c1sc2c(cnc3cc(OC)c(OC)cc32)c1NC(=O)C(=O)N1CCN(c2ccncc2)CC1 [Example 27, Methyl 7,8-dimethoxy-3-{2-oxo-2-[4-(pyridin-4-yl)piperazin-1-yl]acetamido}thieno[3,2-c]quinoline-2-carboxylate]	1 to 10	245 to 248	1 to 10
COC(=O)c1sc2c(cnc3cc(OC)c(OC)cc32)c1NC(=O)C(=O)Nc1ccc(N2CCN(C)CC2)cc1 [Example 28, Methyl 7,8-dimethoxy-3-(2-{[4-(4-methylpiperazin-1-yl)phenyl]amino}-2-oxoacetamido)thieno[3,2-c]quinoline-2-carboxylate]	1 to 10	240 to 246	10 to 25
COC(=O)c1sc2c(cnc3cc(OC)c(OC)cc32)c1/N=C/N(C)C [Example 32, (E)-methyl 3-(((dimethylamino)methylene)amino)-7,8-dimethoxythieno[3,2-c]quinoline-2-carboxylate]	10 to 25	173 to 175	10 to 25
COc1cc2ncc3c(N)c(-c4nnn[nH]4)sc3c2cc1OC [Example 33, 7,8-dimethoxy-2-(1H-tetrazol-5-yl)thieno[3,2-e]quinolin-3-amine]	25 to 50	252 to 255	50 to 100
COC(=O)c1sc2c(cnc3ccc(F)cc32)c1N [Example 34, Methyl 3-amino-8-fluorothieno[3,2-c]quinoline-2-carboxylate]	10	270 to 272	10
COC(=O)c1sc2c(cnc3cc(F)c(F)cc32)c1N [Example 35, Methyl 3-amino-7,8-difluorothieno[3,2-c]quinoline-2-carboxylate]	10	298 to 300	10
N#Cc1sc2c(cnc3ccc(F)cc32)c1N [Example 36, 3-Amino-8-fluorothieno[3,2-c]quinoline-2-carbonitrile]	75	> 300	75
Nc1c(C(=O)c2ccc(F)cc2)sc2c1cnc1ccc(F)cc12 [Example 37, (3-Amino-8-fluorothieno[3,2-c]quinolin-2-yl)(4-fluorophenyl)methanone]	0.15	276 to 278	5
N#Cc1sc2c(cnc3cc(F)c(F)cc32)c1N [Example 38, 3-Amino-7,8-difluorothieno[3,2-c]quinoline-2-carbonitrile]	25	300 to 301	25
Nc1c(C(=O)c2ccc(F)cc2)sc2c1cnc1cc(F)c(F)cc12 [Example 39, (3-Amino-7,8-difluorothieno[3,2-c]quinolin-2-yl)(4-fluorophenyl)methanone]	75	> 320	75
COc1ccc(C(=O)c2sc3c(cnc4cc(F)c(F)cc43)c2N)cc1 [Example 40, (3-Amino-7,8-difluorothieno[3,2-c]quinolin-2-yl)(4-methoxyphenyl)methanone]	75	258 to 260	75
COc1ccc(C(=O)c2sc3c(cnc4ccc(F)cc43)c2N)cc1 [Example 41, (3-Amino-8-fluorothieno[3,2-c]quinolin-2-yl)(4-methoxyphenyl)methanone]	0.6	256 to 258	10
